Test results from BigSolDB 2.1.

CCCN(CCC)S(=O)(=O)c1ccc(C(=O)O)cc1
solubility (mole fraction)
Conditions	283.15 K	288.15 K	293.15 K	298.15 K	303.15 K	308.15 K	313.15 K	318.15 K	323.15 K
in MTBE	0.00461	0.00531	0.00665	0.00801	0.00953	0.0111	0.0129	0.0156	0.0185
in acetone	0.013	0.0148	0.0176	0.0201	0.0234	0.0268	0.0312	0.035	0.0409
in ethanol	0.00506	0.00615	0.00797	0.00961	0.0117	0.015	0.0191	0.023	0.0279
in ethyl acetate	0.00382	0.00459	0.00548	0.00659	0.00821	0.00992	0.0118	0.0138	0.0164
in isobutanol	0.00363	0.00453	0.00573	0.00716	0.00904	0.0108	0.013	0.0158	0.0199
in isopropanol	0.00627	0.00759	0.0089	0.0106	0.0122	0.015	0.018	0.021	0.0258
in methanol	0.00365	0.00485	0.00609	0.00804	0.0105	0.0132	0.0166	0.0202	0.0248
in methyl acetate	0.00449	0.00544	0.00656	0.00794	0.00945	0.0112	0.0129	0.0152	0.0179
in n-butanol	0.00744	0.0089	0.0109	0.0131	0.0158	0.0186	0.022	0.026	0.0303
in n-butyl acetate	0.00308	0.0038	0.00474	0.00562	0.00653	0.00773	0.00972	0.0118	0.014
in n-pentanol	0.00879	0.0103	0.0123	0.0146	0.0171	0.0194	0.0228	0.0264	0.031
in n-propanol	0.00544	0.00656	0.00841	0.0108	0.0135	0.0163	0.0207	0.0246	0.0289
